{"source": "patent US20110306671A1", "about": "“AMIDE DERIVATIVES OF ETHACRYNIC ACID” (The Regents of the The University of California, priority 2008, published 2011)", "key": {"Primary CLL cells [1]": {"system": "Primary CLL cells", "assay": "Cell apoptosis assay (DiOC6/PI flow cytometry) in primary CLL cells", "assay_type": "cell-based, human", "settings": "3 μM EA with NAC 1 mM or BHA 100 μM, 48 hours"}, "Wnt/β-catenin signaling": {"system": "Wnt/β-catenin signaling", "assay": "TOPflash reporter assay in transfected HEK293 cells", "assay_type": "cell-based, human", "settings": "for effect on EA-induced inhibition of Wnt/β-catenin signaling: TOPflash + Dvl, 50 μM EA with 1 mM NAC, 100 μM PDTC or 100 μM BHA, 24 hours"}, "Wnt signaling": {"system": "Wnt signaling", "assay": "CellSensor LEF/TCF-bla SW480 cell-based assay (Wnt signaling inhibition)", "parameters": "species or system human", "settings": "for IC50: LEF/TCF-bla SW480 cells, 20 hours", "description": "To determine the specificity of compounds on Wnt/[…]-catenin pathway inhibition, CellSensor LEF/TCF-bla SW480 cell-based assay (Invitrogen, Carlsbad, Calif.) was used according to the supplier's instructions, but modified for a 96 well format. Cells were plated at 25,000 cells/well in assay medium in 96-well black plates with clear bottom (Corning) the day prior to compound treatment."}, "Primary CLL cells [2]": {"system": "Primary CLL cells", "assay": "Cell viability assay (MTT) with primary CLL cells", "settings": "for EC50: read-out: CLL Inhibition EC50, CLL survival, MTT, 48 hours"}, "Normal PBMC": {"system": "Normal PBMC", "assay": "Cell viability assay (MTT) with normal peripheral blood mononuclear cells", "assay_type": "cell-based, human", "settings": "data not shown"}, "[3]": {"system": "lymphoma and myeloma cells", "settings": "Schmidt et al., 2009; cited from earlier work"}}, "data": [{"smiles": "COc1ccc(O)c(C(C)(C)C)c1", "note": "[BHA, 3-t-butyl-4-hydroxyanisole]", "values": [{"measurement": "protection of CLL cells from EA-induced apoptosis", "setting": "Primary CLL cells [1]", "result": "had no effect"}, {"measurement": "effect on EA-induced inhibition of Wnt/β-catenin signaling", "setting": "Wnt/β-catenin signaling", "result": "did not reverse"}]}, {"smiles": "CCCCS(=N)(=O)CCC(N)C(=O)O", "note": "(stereo not drawn) [BSO, buthionine sulfoximine]", "values": [{"measurement": "effect on Wnt/β-catenin signaling", "setting": "Wnt/β-catenin signaling; cell-based system, data not shown", "result": "did not inhibit"}]}, {"smiles": "C=C(CC)C(=O)c1ccc(OCC(=O)Nc2ccc(C(N)=O)cc2)c(Cl)c1Cl", "note": "[Compound 4]", "values": [{"measurement": "IC50", "setting": "Wnt signaling", "result": 4.76, "unit": "µM"}, {"measurement": "EC50", "setting": "Primary CLL cells [2]", "result": 3.7, "unit": "µM"}]}, {"smiles": "C=C(CC)C(=O)c1ccc(OCC(=O)NO)c(Cl)c1Cl", "note": "[Compound 5]", "values": [{"measurement": "IC50", "setting": "Wnt signaling", "result": 9.89, "unit": "µM"}, {"measurement": "EC50", "setting": "Primary CLL cells [2]", "result": 4.5, "unit": "µM"}]}, {"smiles": "C=C(CC)C(=O)c1ccc(OCC(=O)Nc2ccc(C(=O)O)cc2)c(Cl)c1Cl", "note": "[Compound 6]", "values": [{"measurement": "IC50", "setting": "Wnt signaling", "result": 5.81, "unit": "µM"}, {"measurement": "EC50", "setting": "Primary CLL cells [2]", "result": 5, "unit": "µM"}]}, {"smiles": "C=C(CC)C(=O)c1ccc(OCC(=O)NC(CS)C(=O)OCC)c(Cl)c1Cl", "note": "(stereo not drawn) [Compound 7]", "values": [{"measurement": "IC50", "setting": "Wnt signaling", "result": "> 50", "unit": "µM"}, {"measurement": "EC50", "setting": "Primary CLL cells [2]", "result": 4.8, "unit": "µM"}]}, {"smiles": "C=C(CC)C(=O)c1ccc(OCC(=O)Nc2ccc(C#N)cc2)c(Cl)c1Cl", "note": "[Compound 8]", "values": [{"measurement": "IC50", "setting": "Wnt signaling", "result": 6.84, "unit": "µM"}, {"measurement": "EC50", "setting": "Primary CLL cells [2]", "result": 7.8, "unit": "µM"}]}, {"smiles": "C=C(CC)C(=O)c1ccc(OCC(=O)Nc2ccc(Cl)c(C(=O)O)c2)c(Cl)c1Cl", "note": "[Compound 9]", "values": [{"measurement": "IC50", "setting": "Wnt signaling", "result": "> 50", "unit": "µM"}, {"measurement": "EC50", "setting": "Primary CLL cells [2]", "result": 15.9, "unit": "µM"}]}, {"smiles": "C=C(CC)C(=O)c1ccc(OCC(=O)Nc2cc(Cl)ccc2C(=O)O)c(Cl)c1Cl", "note": "[Compound 10]", "values": [{"measurement": "IC50", "setting": "Wnt signaling", "result": 9.62, "unit": "µM"}, {"measurement": "EC50", "setting": "Primary CLL cells [2]", "result": 13.8, "unit": "µM"}]}, {"smiles": "C=C(CC)C(=O)c1ccc(OCC(=O)Nc2cc(OC)c(OC)cc2C(=O)O)c(Cl)c1Cl", "note": "[Compound 11]", "values": [{"measurement": "IC50", "setting": "Wnt signaling", "result": "> 50", "unit": "µM"}, {"measurement": "EC50", "setting": "Primary CLL cells [2]", "result": 21.9, "unit": "µM"}]}, {"smiles": "C=C(CC)C(=O)c1ccc(OCC(=O)Nc2ccc3c(c2)C(=O)NC3=O)c(Cl)c1Cl", "note": "[Compound 12]", "values": [{"measurement": "IC50", "setting": "Wnt signaling", "result": 4.88, "unit": "µM"}, {"measurement": "EC50", "setting": "Primary CLL cells [2]", "result": 2.5, "unit": "µM"}]}, {"smiles": "C=C(CC)C(=O)c1ccc(OCC(=O)Nc2nc3ccccc3s2)c(Cl)c1Cl", "note": "[Compound 13]", "values": [{"measurement": "IC50", "setting": "Wnt signaling", "result": 4.86, "unit": "µM"}, {"measurement": "EC50", "setting": "Primary CLL cells [2]", "result": 1.5, "unit": "µM"}]}, {"smiles": "C=C(CC)C(=O)c1ccc(OCC(=O)NC2CCN(CC(=O)OC)CC2)c(Cl)c1Cl", "note": "[Compound 18]", "values": [{"measurement": "IC50", "setting": "Wnt signaling", "result": "> 50", "unit": "µM"}, {"measurement": "EC50", "setting": "Primary CLL cells [2]", "result": 10.6, "unit": "µM"}]}, {"smiles": "C=C(CC)C(=O)c1ccc(OCC(=O)Nc2cccc(C(=O)O)c2)c(Cl)c1Cl", "note": "[Compound 19]", "values": [{"measurement": "IC50", "setting": "Wnt signaling", "result": 5.85, "unit": "µM"}, {"measurement": "EC50", "setting": "Primary CLL cells [2]", "result": 20.6, "unit": "µM"}]}, {"smiles": "C=C(CC)C(=O)c1ccc(OCC(=O)NCCc2c[nH]c3ccccc23)c(Cl)c1Cl", "note": "[Compound 20]", "values": [{"measurement": "IC50", "setting": "Wnt signaling", "result": 10.7, "unit": "µM"}, {"measurement": "EC50", "setting": "Primary CLL cells [2]", "result": 5.9, "unit": "µM"}]}, {"smiles": "C=C(CC)C(=O)c1ccc(OCC(=O)Nc2ccc(C(=O)O)cn2)c(Cl)c1Cl", "note": "[Compound 21]", "values": [{"measurement": "IC50", "setting": "Wnt signaling", "result": "> 50", "unit": "µM"}, {"measurement": "EC50", "setting": "Primary CLL cells [2]", "result": 14.9, "unit": "µM"}]}, {"smiles": "C=C(CC)C(=O)c1ccc(OCC(=O)Nc2ccc(C(=O)O)c(O)c2)c(Cl)c1Cl", "note": "[Compound 22]", "values": [{"measurement": "IC50", "setting": "Wnt signaling", "result": "> 50", "unit": "µM"}, {"measurement": "EC50", "setting": "Primary CLL cells [2]", "result": "> 25", "unit": "µM"}]}, {"smiles": "C=C(CC)C(=O)c1ccc(OCC(=O)Nc2ccc(C(=O)OC)cc2)c(Cl)c1Cl", "note": "[Compound 23]", "values": [{"measurement": "IC50", "setting": "Wnt signaling", "result": 11.4, "unit": "µM"}, {"measurement": "EC50", "setting": "Primary CLL cells [2]", "result": 4.1, "unit": "µM"}]}, {"smiles": "C=C(CC)C(=O)c1ccc(OCC(=O)Nc2ccc(Cc3ccc(N4C(=O)C5C6C=CC(C6)C5C4=O)cc3)cc2)c(Cl)c1Cl", "note": "(stereo not drawn) [Compound 27]", "values": [{"measurement": "IC50", "setting": "Wnt signaling", "result": 2.93, "unit": "µM"}, {"measurement": "EC50", "setting": "Primary CLL cells [2]", "result": 1.8, "unit": "µM"}]}, {"smiles": "C=C(CC)C(=O)c1ccc(OCC(=O)Nc2ccc(C(C)=O)cc2)c(Cl)c1Cl", "note": "[Compound 28]", "values": [{"measurement": "IC50", "setting": "Wnt signaling", "result": 5.06, "unit": "µM"}, {"measurement": "EC50", "setting": "Primary CLL cells [2]", "result": 3.9, "unit": "µM"}]}, {"smiles": "C=C(CC)C(=O)c1ccc(OCC(=O)Nc2ccc3[nH]cnc3c2)c(Cl)c1Cl", "note": "[Compound 29]", "values": [{"measurement": "inhibition of Wnt signaling (in words)", "setting": "Wnt signaling", "result": "low micromolar concentrations"}, {"measurement": "IC50", "setting": "Wnt signaling", "result": 3.62, "unit": "µM"}, {"measurement": "decrease of CLL survival (in words)", "setting": "Primary CLL cells [2]", "result": "low micromolar concentrations"}, {"measurement": "EC50", "setting": "Primary CLL cells [2]", "result": 3.2, "unit": "µM"}]}, {"smiles": "C=C(CC)C(=O)c1ccc(OCC(=O)Nc2nc(C(=NOC)C(=O)O)cs2)c(Cl)c1Cl", "note": "[Compound 30]", "values": [{"measurement": "IC50", "setting": "Wnt signaling", "result": "> 50", "unit": "µM"}, {"measurement": "EC50", "setting": "Primary CLL cells [2]", "result": "> 25", "unit": "µM"}]}, {"smiles": "C=C(CC)C(=O)c1ccc(OCC(=O)Nc2ccc(C(=O)NC(CCC(=O)OCC)C(=O)OCC)cc2)c(Cl)c1Cl", "note": "(stereo not drawn) [Compound 31]", "values": [{"measurement": "inhibition of Wnt signaling (in words)", "setting": "Wnt signaling", "result": "low micromolar concentrations"}, {"measurement": "IC50", "setting": "Wnt signaling", "result": 2.61, "unit": "µM"}, {"measurement": "decrease of CLL survival (in words)", "setting": "Primary CLL cells [2]", "result": "low micromolar concentrations"}, {"measurement": "EC50", "setting": "Primary CLL cells [2]", "result": 2.1, "unit": "µM"}]}, {"smiles": "C=C(CC)C(=O)c1ccc(OCC(=O)Nc2ccc3c(c2)C(=O)c2ccccc2C3=O)c(Cl)c1Cl", "note": "[Compound 32]", "values": [{"measurement": "IC50", "setting": "Wnt signaling", "result": 2.97, "unit": "µM"}, {"measurement": "EC50", "setting": "Primary CLL cells [2]", "result": 2.1, "unit": "µM"}]}, {"smiles": "C=C(CC)C(=O)c1ccc(OCC(=O)NCCCN2CCCC2=O)c(Cl)c1Cl", "note": "[Compound 33]", "values": [{"measurement": "IC50", "setting": "Wnt signaling", "result": "> 50", "unit": "µM"}, {"measurement": "EC50", "setting": "Primary CLL cells [2]", "result": 13.8, "unit": "µM"}]}, {"smiles": "C=C(CC)C(=O)c1ccc(OCC(=O)Nc2ccc(C=CC(=O)OCC)cc2)c(Cl)c1Cl", "note": "[Compound 38]", "values": [{"measurement": "IC50", "setting": "Wnt signaling", "result": 3.79, "unit": "µM"}, {"measurement": "EC50", "setting": "Primary CLL cells [2]", "result": 1.7, "unit": "µM"}]}, {"smiles": "CCC(C)C(=O)c1ccc(OCC(=O)O)c(Cl)c1Cl", "note": "(stereo not drawn) [Compound 42]", "values": [{"measurement": "inhibition of Wnt signaling (in words)", "setting": "Wnt signaling", "result": "completely abrogated"}, {"measurement": "IC50", "setting": "Wnt signaling; Homo sapiens", "result": "> 50", "unit": "µM"}, {"measurement": "decrease of CLL survival (in words)", "setting": "Primary CLL cells [2]", "result": "completely abrogated"}, {"measurement": "EC50", "setting": "Primary CLL cells [2]", "result": "> 25", "unit": "µM"}]}, {"smiles": "C=C(CC)C(=O)c1ccc(OC)c(Cl)c1Cl", "note": "[Compound 43]", "values": [{"measurement": "toxicity to peripheral blood mononuclear cells (PBMC)", "setting": "Normal PBMC", "result": "highly toxic"}]}, {"smiles": "CC(=O)N[C@@H](CS)C(=O)O", "note": "[NAC, N-acetyl-L-cysteine]", "values": [{"measurement": "protection of CLL cells from EA-induced apoptosis", "setting": "Primary CLL cells [1]", "result": "significantly protected"}, {"measurement": "effect on EA-induced inhibition of Wnt/β-catenin signaling", "setting": "Wnt/β-catenin signaling", "result": "significantly prevented"}]}, {"smiles": "Cc1cc(C2CCCCC2)n(O)c(=O)c1", "note": "[cic, ciclopiroxolamine]", "values": [{"measurement": "induction of apoptosis", "setting": "[3]", "result": "significant induction of apoptosis"}]}]}
